Entries after “also recorded” stand apart in the source; their conditions may differ.
What was measured:
[1] = test system: tumor vasculature of B16F1-induced tumors; experiment: Hematoxylin and eosin histopathology of B16F1-induced tumors; format: in vivo, mouse; conditions: tumors excised from treated mice
Text: Histopathological changes in the subcutaneous tumors: To analyze the tumor vasculature of TAT PTD, SM treated and P44 treated mice, the tumor sections were stained with HE. […] In SM treated tumors, due to compressed vessels, the shape of RBCs were also distorted (FIG. 7A, lower right panel, arrow marked). […] The presence of hypoxic cells is a hallmark of cancer (Brown, J. M., and Wilson, W. R. (2004) Nat. Rev. Cancer 4, 437-447; Minchinton, A. I., and Tannock, I. F. (2006) Nat. Rev. Cancer 6, 583-592). Cellular responses to hypoxia are triggered by the hypoxia inducible factor-1 alpha (HIF-1α) that is known to restore tissue homeostasis in hypoxic conditions (Semenza, G. L. (2000) Genes Dev. 14, 1983-1991). To determine the status of HIF-1α expression, immunohistochemical analysis was performed on tumor sections obtained from SM and P44 treated mice by using antibody against HIF-1 α. […] All these observations implicate the significance of P44 peptide in restoring tissue architecture in tumor cells and thus potentiates its role as a tumor regressor.
FIG. 7. Histopathological changes in B16F1-induced tumors. A, Hematoxylin and eosin staining of tumor sections excised from mice treated with either P44 (upper panel) or SM (lower panel) peptide. […] The images have been recorded at 20× and 40×. B, Immunohistochemistry of paraffin embedded tumor sections from P44 treated as well as, SM treated mice. After antigen unmasking, sections were stained with HIF-1α antibody (middle panel) and detected using Cy-3 conjugated mouse immunoglobulin. Sections were counterstained with DAP1 for nuclear localization (left panel). Right panel corresponds to the merged image.

[2] = test system: B16F1 mouse melanoma cells; experiment: B16F1 melanoma tumor regression in nude mice; format: in vivo; conditions: for anti-tumorigenic activity (tumor regression): xenograft tumor nude mice model
Method: P44 peptide: A potent tumor regressor: To test whether the differences in SMAR1 derived peptide-induced activation of p53 translated to differences in drug sensitivity in vivo, B16F1 mouse melanoma cells were subcutaneously grafted into athymic nude mice, and tumor growth together with therapeutic sensitivity was monitored. Once the tumor nodule was established into the mouse, P44 peptide was injected in the tumor localized areas at a physiological dose of 200 μg/mouse thrice a week. The treatment was continued for 4 weeks. In a parallel experiment, either TAT PTD or TAT-SMAR1 RS mutant peptide, SM (FIGS. 6A and B, respectively) was injected in tumor bearing mice to be used as control.
FIG. 6D-F corresponds to the magnified tumor images of FIG. 6A-C, respectively. […] Thus, P44 peptide mimics the function of full-length SMAR1 in drastically reducing the tumor growth.
FIG. 6. Tumor regression by TAT-SMAR1 WT peptide. A, Nude mice were allowed to develop tumors by subcutaneously injecting B 16F1 mouse melanoma cells. Mice with size-matched tumors were then randomized into three treatment groups (five animals per group); TAT PTD alone (panel A), TAT-SMART RS mutant (SM) (panel B) and TAT-SMAR1 WT (P44) (panel C). Panels D, E and F correspond to the magnified images of panels A, B and C, respectively. Mice were treated with either of the peptides at a dose of 200 μg/mice/thrice a week for consecutive 4 weeks. The tumors were then weighed and plotted for each mouse in all the treatment groups (panel G).
Animal model for tumorgenesis: B16F1 mouse melanoma cells in the exponential growth phase were trypsinized (Invitrogen) and washed twice with PBS. Cell number and viability was assessed and cell cultures with viability >90% were used. Tumors were then established in nude mice by subcutaneous injection of 2×10^6 B16F1 cells. Five mice were used in each set of experiments. The mice were maintained under pathogen-free conditions. When the subcutaneous tumor was clearly visible, the TAT-SMAR1 WT (P44) peptide treatment was started. The P44 peptide was subcutaneously injected proximal to the tumor sites at a dose of 200 μg/mouse thrice a week. The treatment was administered for 4 weeks. For control treatment, TAT PTD alone and TAT SMAR1 RS mutant peptide (SM) were injected in the same manner as the P44 peptide.

[3] = test system: cell cycle regulatory genes; experiment: Microarray gene expression upon P44 treatment; format: cell-based

Row | Sequence | tumor vascular architecture (HE staining) [1] | tumor weight after excision ([2]; nude mice, 200 μg/mouse thrice a week, 4 weeks) [g] | anti-tumorigenic activity (tumor regression) [2] | expression of genes involved in regulating mitosis, MAPK signaling and cell cycle checkpoints [3] | expression of proteins involved in ubiquitin-proteasome signaling [3] | inter-vessel distance compared to SM-treated tumors [1] | regression in tumor compared to TAT-injected or SM injected mice ([2]; nude mice, 200 μg/mouse thrice a week, 4 weeks, injected at tumor site)
1 | YGRKKRRQRRRTAWRRKQRGQSLAVKSFSRRTPAAAAYSASETM [SM, P44 mutant where serine residues from 347-350 were replaced by alanines] | leaky vascular architecture; also recorded: poorly organized vascular architecture and compressed blood vessels | 1.2 to 2.5 | significantly reduced |  |  |  | 
2 | YGRKKRRQRRRTAWRRKQRGQSLAVKSFSRRTPSSSSYSASETM [P44, 33 mer SMAR1 peptide (residues 324-357) conjugated with 11-mer TAT-PTD] | intact vasculature |  | strongly regressed tumors | significant decreased expression | reduced expression | significantly less | 5-7 fold

Reference: patent publication US8420100B2, “Tumor suppressor activating polypeptides and uses thereof” (Department of Biotechnology, priority 2006, dated 2013)
